How the values were obtained:
Type in all cases: in vivo
[1] = tested on: Galium (catchweed bedstraw, Galium aparine); test: Test A postemergence
Procedure, shortened: (§1)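 Compounds were formulated in a non-phytotoxic solvent mixture with surfactant and applied as a preemergence directed soil spray after seeding, or sprayed postemergence over plants 2 to 10 cm tall at the one- to two-leaf stage. Evaluation after about 10 d compared treated with untreated controls, using a scale from 0 (no effect) to 100 (complete control).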

Kochia (Kochia scoparia) [2] = test: Test A postemergence
Procedure, shortened: as §1

[3] = tested on: ragweed (common ragweed, Ambrosia elatior); test: Test A postemergence
Procedure, shortened: as §1

corn (Zea mays) = test: Test A postemergence
Procedure, shortened: as §1

[4] = tested on: wheat (Triticum aestivum); test: Test A postemergence
Procedure, shortened: as §1

[5] = tested on: giant foxtail (Setaria faberii); test: Test A postemergence
Procedure, shortened: as §1

[6] = tested on: blackgrass (Alopecurus myosuroides); test: Test A postemergence
Procedure, shortened: as §1

[7] = tested on: pigweed (Amaranthus retroflexus); test: Test A postemergence
Procedure, shortened: as §1

[8] = tested on: ryegrass, Italian (Italian ryegrass, Lolium multiflorum); test: Test A postemergence
Procedure, shortened: as §1

[9] = tested on: barnyardgrass (Echinochloa crus-galli); test: Test A postemergence
Procedure, shortened: as §1

[10] = tested on: sedge, umbrella (small-flower umbrella sedge, Cyperus difformis); test: Test B flooded paddy test; conditions: Flood, 250 g ai/ha; 0 to 100 scale where 0 is no effect and 100 is complete control; 13 to 15 d
Procedure, shortened: (§2)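 2-leaf plants; pots flooded 3 cm over soil; cpd added to paddy water; depth held; greenhouse 13–15 d; visual rating vs controls, 0 = no effect, 100 = complete control.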

rice (Oryra sativa) = test: Test B flooded paddy test; conditions: Flood, 250 g ai/ha; 0 to 100 scale where 0 is no effect and 100 is complete control; 13 to 15 d
Procedure, shortened: as §2

[11] = tested on: barnyardgrass (Echinochloa crus-galli); test: Test B flooded paddy test; conditions: Flood, 250 g ai/ha; 0 to 100 scale where 0 is no effect and 100 is complete control; 13 to 15 d
Procedure, shortened: as §2

[12] = tested on: ducksalad (Heteranthera limosa); test: Test B flooded paddy test; conditions: Flood, 250 g ai/ha; 0 to 100 scale where 0 is no effect and 100 is complete control; 13 to 15 d
Procedure, shortened: as §2

Kochia (Kochia scoparia) [13] = test: Test A preemergence; conditions: Preemergence; for Plant response rating, Kochia: 125 g ai/ha, visual injury after approximately 10 d, 0 to 100 scale where 0 is no effect and 100 is complete control; for Kochia plant response rating (0 to 100 scale, 0 is no effect, 100 is complete control): 500 g ai/ha, visual injury approx. 10 d
Procedure, shortened: as §1

[14] = tested on: ragweed (common ragweed, Ambrosia elatior); test: Test A preemergence; conditions: Preemergence; for Plant response rating, Ragweed: 125 g ai/ha, visual injury after approximately 10 d, 0 to 100 scale where 0 is no effect and 100 is complete control; for Ragweed plant response rating (0 to 100 scale, 0 is no effect, 100 is complete control): 500 g ai/ha, visual injury approx. 10 d
Procedure, shortened: as §1

[15] = tested on: giant foxtail (Setaria faberii); test: Test A preemergence; conditions: Preemergence; for Plant response rating, Foxtail, Giant: 125 g ai/ha, visual injury after approximately 10 d, 0 to 100 scale where 0 is no effect and 100 is complete control; for Foxtail, Giant plant response rating (0 to 100 scale, 0 is no effect, 100 is complete control): 500 g ai/ha, visual injury approx. 10 d
Procedure, shortened: as §1

[16] = tested on: pigweed (Amaranthus retroflexus); test: Test A preemergence; conditions: Preemergence; for Plant response rating, Pigweed: 125 g ai/ha, visual injury after approximately 10 d, 0 to 100 scale where 0 is no effect and 100 is complete control; for Pigweed plant response rating (0 to 100 scale, 0 is no effect, 100 is complete control): 500 g ai/ha, visual injury approx. 10 d
[17] = tested on: ryegrass, Italian (Italian ryegrass, Lolium multiflorum); test: Test A preemergence; conditions: Preemergence; for Plant response rating, Ryegrass, Italian: 125 g ai/ha, visual injury after approximately 10 d, 0 to 100 scale where 0 is no effect and 100 is complete control; for Ryegrass, Italian plant response rating (0 to 100 scale, 0 is no effect, 100 is complete control): 500 g ai/ha, visual injury approx. 10 d
Procedure, shortened: as §1

[18] = tested on: barnyardgrass (Echinochloa crus-galli); test: Test A preemergence; conditions: Preemergence; for Plant response rating, Barnyardgrass: 125 g ai/ha, visual injury after approximately 10 d, 0 to 100 scale where 0 is no effect and 100 is complete control; for Barnyardgrass plant response rating (0 to 100 scale, 0 is no effect, 100 is complete control): 500 g ai/ha, visual injury approx. 10 d
Procedure, shortened: as §1

[19] = 125 g ai/ha, postemergence, visual rating after approx. 10 d, 0 to 100 scale (0 no effect, 100 complete control)
[20] = Postemergence, 500 g ai/ha, 0 to 100 scale where 0 is no effect and 100 is complete control
[21] = 125 g ai/ha, postemergence, visual injury rating on 0 to 100 scale (0 no effect, 100 complete control), approx. 10 d

Compound | Plant response rating, Galium [1, 20] | Plant response rating, Kochia (Kochia (Kochia scoparia) [2]; [20]) | Plant response rating, Ragweed [3, 20] | Plant response rating, Corn (corn (Zea mays); [20]) | Plant response rating, Wheat [4, 20] | Plant response rating, Foxtail, Giant [5, 20] | Plant response rating, Blackgrass [6, 20] | Plant response rating, Pigweed [7, 20] | Plant response rating, Ryegrass, Italian [8, 20] | Plant response rating, Barnyardgrass [9, 20] | Plant response rating, Sedge, Umbrella [10] | Plant response rating, Rice (rice (Oryra sativa)) | Plant response rating, Barnyardgrass [11] | Plant response rating, Ducksalad [12] | Plant response rating, Kochia (Kochia (Kochia scoparia) [13]) | Kochia plant response rating (0 to 100 scale, 0 is no effect, 100 is complete control) (Kochia (Kochia scoparia) [13]) | Plant response rating, Ragweed [14] | Ragweed plant response rating (0 to 100 scale, 0 is no effect, 100 is complete control) [14] | Plant response rating, Foxtail, Giant [15] | Foxtail, Giant plant response rating (0 to 100 scale, 0 is no effect, 100 is complete control) [15] | further results
C=CCN1CC(c2cccc(C(F)(F)F)c2)C(C(=O)Nc2ccccc2F)C1=O (stereo not drawn) [Compound 605] | 0 | 0 | 0 | 0 | 30 | 80 | 20 | 0 | 0 | 80 | 0 | 0 | 0 | 50 | 0 | 0 | 0 | 0 | 90 | 90 | Plant response rating, Galium [1, 19]: 0; Plant response rating, Kochia (Kochia (Kochia scoparia) [2]; [19]): 0; Plant response rating, Ragweed [3, 19]: 0; Plant response rating, Corn (corn (Zea mays); [19]): 0; Plant response rating, Wheat [4, 19]: 0; Plant response rating, Foxtail, Giant [5, 19]: 20; Plant response rating, Blackgrass [6, 19]: 0; Plant response rating, Pigweed [7, 19]: 0; Plant response rating, Ryegrass, Italian [8, 19]: 0; Plant response rating, Barnyardgrass [9, 19]: 0; Plant response rating, Pigweed [16]: 0; Pigweed plant response rating (0 to 100 scale, 0 is no effect, 100 is complete control) [16]: 0; Plant response rating, Ryegrass, Italian [17]: 0; Ryegrass, Italian plant response rating (0 to 100 scale, 0 is no effect, 100 is complete control) [17]: 20; Plant response rating, Barnyardgrass [18]: 30; Barnyardgrass plant response rating (0 to 100 scale, 0 is no effect, 100 is complete control) [18]: 70
O=C1NCC(c2ccc(C(F)(F)F)c(F)c2)C1C(=O)Nc1cccc(F)c1F (racemic) [Compound 504] | 70 | 60 | 40 | 70 | 60 | 90 | 60 | 70 | 40 | 90 | 0 | 0 | 40 | 80 | 80 | 80 | 40 | 50 | 90 | 90 | Galium plant response rating [1, 21]: 70; Kochia plant response rating (Kochia (Kochia scoparia) [2]; [21]): 30; Ragweed plant response rating [3, 21]: 30; Corn plant response rating (corn (Zea mays); [21]): 70; Wheat plant response rating [4, 21]: 20; Foxtail, Giant plant response rating [5, 21]: 90; Blackgrass plant response rating [6, 21]: 40; Pigweed plant response rating [7, 21]: 60; Ryegrass, Italian plant response rating [8, 21]: 40; Barnyardgrass plant response rating [9, 21]: 80; Plant response rating, Pigweed [16]: 80; Pigweed plant response rating (0 to 100 scale, 0 is no effect, 100 is complete control) [16]: 100; Plant response rating, Ryegrass, Italian [17]: 40; Ryegrass, Italian plant response rating (0 to 100 scale, 0 is no effect, 100 is complete control) [17]: 70; Plant response rating, Barnyardgrass [18]: 90; Barnyardgrass plant response rating (0 to 100 scale, 0 is no effect, 100 is complete control) [18]: 90

Source: patent publication US12077503B2, “Substituted cyclic amides and their use as herbicides” (FMC CORPORATION, priority 2015, dated 2024)
